US20050282755A1, “Compositions having antimicrobial activity and uses thereof” (priority 2004, published 2005)
In brackets after ≈: the same amount, converted by molar mass. Starred links: 1 amine or outer side, 2 acyl side, 3 side chain; linkers in the order of their positions; H or OH if unused. Residues, ends and D or L forms follow the SMILES beside them. *: point of attachment. Ethylenediamine = C(CN[*:2])N[*:1]; Lauroyl = CCCCCCCCCCCC(=O)*; Decanoyl = CCCCCCCCCC(=O)*; Octanoyl = CCCCCCCC(=O)*

Experiments:
Assay type in all cases: cell-based
[1] = test system: Staphylococcus aureus ATCC 29213; experiment: MIC, NCCLS M7-A6 broth microdilution, cation-adjusted Mueller Hinton broth (Table 9, no superscript); conditions: ATCC 29213
Method in brief: (§1)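 Broth microdilution in cation-adjusted Mueller Hinton broth, log-phase inoculum giving 5×10^5 to 1×10^6 CFU/milliliter per well. Overnight incubation at 37° C. MIC taken as lowest peptide concentration with no visible turbidity versus a no-peptide control.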

Salmonella dublin (Lane) = experiment: MIC, NCCLS M7-A6 broth microdilution (Table 9, no superscript)
Method in brief: as §1

[2] = test system: Pseudomonas aeruginosa ATCC 27853; experiment: as above; conditions: ATCC 27853
Method in brief: as §1

[3] = test system: Escherichia coli ATCC 25922; experiment: as above; conditions: ATCC 25922
Method in brief: as §1

[4] = test system: Staphylococcus epidermidis ATCC 12228; experiment: as above; conditions: ATCC 12228
Method in brief: as §1

[5] = test system: Candida albicans ATCC 18804; experiment: MIC in yeasts, NCCLS M27-A2 broth microdilution, RPMI 1640 (Table 9, letter e); conditions: ATCC 18804
Method in brief: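 Plates incubated 24 to 48 hours at 37° C, with yeast seeded at 0.5×10^3–2.5×10^3 CFU/milliliter final in RPMI 1640 (glutamine, phenol red indicator). MIC was read as the lowest peptide concentration showing no visible growth.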

[6] = test system: Propionibacterium acnes ATCC 6919; experiment: MIC, agar dilution method NCCLS M11-A6, Brucella agar, anaerobic (Table 9, superscript c); conditions: ATCC 6919
Method in brief: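 MIC taken as the lowest peptide level giving no colonies on the plate. Plates were inoculated to 1.5×10^8 CFU/milliliter, then kept anaerobically at 37° C. for 48-96 hours; method follows NCCLS M11-A6.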

| Structure (SMILES) | MIC S. aureus [1] [µg/mL] | MIC S. dublin (Salmonella dublin (Lane)) [µg/mL] | MIC P. aeruginosa [2] [µg/mL] | MIC E. coli [3] [µg/mL] | MIC S. epidermidis [4] [µg/mL] | MIC C. albicans [5] [e ug/mL] | MIC P. acnes [6] [c ug/mL] |
| --- | --- | --- | --- | --- | --- | --- | --- |
| CCCCCCCC(=O)NCCNC(=O)[C@H](CCCNC(=N)N)NC(=O)[C@H](CCSC)NC(=O)[C@H](Cc1ccccc1)NC(=O)[C@H](CC(N)=O)NC(=O)[C@H](CCCNC(=N)N)NC(=O)[C@H](C)NC(=O)[C@@H](NC(=O)[C@H](CC(=O)O)NC(=O)[C@H](CCCNC(=N)N)NC(=O)[C@H](Cc1c[nH]c2ccccc12)NC(=O)[C@H](CCCNC(=N)N)NC(=O)[C@H](CO)NC(=O)[C@@H](N)CCCNC(=N)N)C(C)C [Peptide 174, H2N-RSRWRDVARNFMR-Ethylamidooctanyl] (H-RSRWRDVARNFMR-{Ethylenediamine-Octanoyl}; C-terminus assumed) | 8 (≈ 4.17 µM) | 16 (≈ 8.34 µM) | 4 (≈ 2.09 µM) | 2 (≈ 1.04 µM) | 1 (≈ 0.521 µM) | 32 | 64 |
| CCCCCCCCCC(=O)NCCNC(=O)[C@H](CCCNC(=N)N)NC(=O)[C@H](CCSC)NC(=O)[C@H](Cc1ccccc1)NC(=O)[C@H](CC(N)=O)NC(=O)[C@H](CCCNC(=N)N)NC(=O)[C@H](C)NC(=O)[C@@H](NC(=O)[C@H](CC(=O)O)NC(=O)[C@H](CCCNC(=N)N)NC(=O)[C@H](Cc1c[nH]c2ccccc12)NC(=O)[C@H](CCCNC(=N)N)NC(=O)[C@H](CO)NC(=O)[C@@H](N)CCCNC(=N)N)C(C)C [Peptide 175, H2N-RSRWRDVARNFMR-Ethylamidodecanyl] (H-RSRWRDVARNFMR-{Ethylenediamine-Decanoyl}; C-terminus assumed) | 4 (≈ 2.06 µM) | 4 (≈ 2.06 µM) | 2 (≈ 1.03 µM) | 4 (≈ 2.06 µM) | 1 (≈ 0.514 µM) | 8 | 32 |
| CCCCCCCCCCCC(=O)NCCNC(=O)[C@H](CCCNC(=N)N)NC(=O)[C@H](CCSC)NC(=O)[C@H](Cc1ccccc1)NC(=O)[C@H](CC(N)=O)NC(=O)[C@H](CCCNC(=N)N)NC(=O)[C@H](C)NC(=O)[C@@H](NC(=O)[C@H](CC(=O)O)NC(=O)[C@H](CCCNC(=N)N)NC(=O)[C@H](Cc1c[nH]c2ccccc12)NC(=O)[C@H](CCCNC(=N)N)NC(=O)[C@H](CO)NC(=O)[C@@H](N)CCCNC(=N)N)C(C)C [Peptide 176, H2N-RSRWRDVARNFMR-Ethylamidolauryl] (H-RSRWRDVARNFMR-{Ethylenediamine-Lauroyl}; C-terminus assumed) | 8 (≈ 4.05 µM) | 16 (≈ 8.1 µM) | 32 (≈ 16.2 µM) | 8 (≈ 4.05 µM) | 1 (≈ 0.506 µM) | 4 | 64 |
| CCCCCCCCCC(=O)NCCCC[C@H](NC(=O)[C@H](CCCNC(=N)N)NC(=O)[C@H](CC(C)C)NC(=O)[C@H](Cc1ccccc1)NC(=O)[C@H](CC(N)=O)NC(=O)[C@H](CCCNC(=N)N)NC(=O)[C@H](C)NC(=O)[C@@H](NC(=O)[C@H](CC(=O)O)NC(=O)[C@H](CCCNC(=N)N)NC(=O)[C@H](Cc1c[nH]c2ccccc12)NC(=O)[C@H](CCCNC(=N)N)NC(=O)[C@H](CO)NC(=O)[C@@H](N)CCCNC(=N)N)C(C)C)C(N)=O [Peptide 180, H2N-RSRWRDVARNFLRK(Decanyl)-NH2] (H-RSRWRDVARNFLRK(Decanoyl)-NH2) | 8 (≈ 3.97 µM) | 16 (≈ 7.95 µM) | 4 (≈ 1.99 µM) | 4 (≈ 1.99 µM) | 1 (≈ 0.497 µM) | 16 | 64 |
